Results published in patent publication US9102648B1, “Bioavailable diacylhydrazine ligands for modulating the expression of exogenous genes via an ecdysone receptor complex” (Intrexon Corporation, priority 2003, dated 2015).
Read-outs that look alike come from different tables or passages of the source.

Columns and labels:
[1] = molecular target: GAL4 DBD-CfEcR(DEF)/VP16AD-MmRXRE (Choristoneura fumiferana, UniProt O77240); experiment: 13B3 Assay (CHO stable cell line, luciferase reporter); conditions: for 13B3 assay Rel Max FI: maximum fold induction at any concentration relative to that of GS-E ligand, CHO 13B3 cells; for fold induction at 3.3 µM: read-out: Fold Induction, 13B3 Assay, 3.3 uM; for fold induction at 33 µM: read-out: Fold Induction, 13B3 Assay, 33 uM; for Fold Induction, 13B3 Assay, 3.3 uM: 3.3 uM ligand; for Fold Induction, 13B3 Assay, 3.3 uM / Fold Induction, 13B3 Assay, 33 uM: RLU ligand treated / RLU DMSO treated cells; for Fold Induction, 13B3 Assay, 33 uM: 33 uM ligand
Summary of the method: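 Ligands dosed at 8 levels from 33 to 0.01 μM (DMSO stocks diluted 300-fold) onto the 13B3 CHO line carrying GAL4-DBD/CfEcR-DEF, VP16/MmRXR-DE and a GAL4-responsive luciferase gene.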

[2] = molecular target: T1, Bombyx mori EcR (VP16 fusion, CVBE switch construct) (Bombyx mori, UniProt P49881); experiment: Z3 Assay (HEK-293 cells with CVBE and 6XEcRE LacZ, β-galactosidase reporter); conditions: for fold induction at 3.3 µM: HEK293, read-out: Fold Induction, Z3 Assay, 3.3 uM; for fold induction at 33 µM: HEK293, read-out: Fold Induction, Z3 Assay, 33 uM; for Fold Induction, Z3 Assay, 3.3 uM: 3.3 uM ligand; for Fold Induction, Z3 Assay, 3.3 uM / Fold Induction, Z3 Assay, 33 uM: ligand treated / DMSO treated cells; for Fold Induction, Z3 Assay, 33 uM: 33 uM ligand; for Z3 assay Rel Max FI: maximum fold induction at any concentration relative to that of GS-E ligand
T1 sequence (P49881 86-606): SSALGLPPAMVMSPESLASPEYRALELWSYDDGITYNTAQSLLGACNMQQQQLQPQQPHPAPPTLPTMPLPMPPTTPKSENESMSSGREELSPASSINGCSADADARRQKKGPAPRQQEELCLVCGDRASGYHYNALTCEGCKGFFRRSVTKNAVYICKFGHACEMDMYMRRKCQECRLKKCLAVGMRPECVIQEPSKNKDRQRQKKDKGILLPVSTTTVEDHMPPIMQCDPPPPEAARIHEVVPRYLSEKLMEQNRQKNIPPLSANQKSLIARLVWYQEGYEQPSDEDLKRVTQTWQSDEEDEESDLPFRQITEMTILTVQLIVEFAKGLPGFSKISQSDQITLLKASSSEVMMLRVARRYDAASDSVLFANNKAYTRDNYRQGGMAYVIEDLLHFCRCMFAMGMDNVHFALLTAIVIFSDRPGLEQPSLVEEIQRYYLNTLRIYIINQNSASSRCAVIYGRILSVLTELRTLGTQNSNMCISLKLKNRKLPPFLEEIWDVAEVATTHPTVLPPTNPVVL
T1 sequence (P19793 1-462 partner): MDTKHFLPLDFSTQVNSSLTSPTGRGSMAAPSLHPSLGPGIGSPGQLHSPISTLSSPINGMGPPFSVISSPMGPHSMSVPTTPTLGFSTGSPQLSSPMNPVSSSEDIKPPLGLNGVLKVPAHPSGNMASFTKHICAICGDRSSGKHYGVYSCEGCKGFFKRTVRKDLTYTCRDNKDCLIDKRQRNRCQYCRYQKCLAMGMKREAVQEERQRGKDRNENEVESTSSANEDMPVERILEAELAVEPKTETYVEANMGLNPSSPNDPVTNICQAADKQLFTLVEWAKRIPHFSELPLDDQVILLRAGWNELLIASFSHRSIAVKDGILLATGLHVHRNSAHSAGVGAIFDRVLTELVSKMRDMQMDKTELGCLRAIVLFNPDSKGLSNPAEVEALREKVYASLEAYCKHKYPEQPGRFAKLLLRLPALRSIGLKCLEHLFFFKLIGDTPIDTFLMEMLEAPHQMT

[3] = read-out: 13B3 EC50, CHO 13B3 stable cell line, luciferase reporter, 48 h, average of two wells
[4] = read-out: Z3 assay EC50, HEK-293 Z3 cells, β-galactosidase reporter, average of two wells

## CCc1ccc(C(=O)NN(C(=O)c2cc(C)cc(C)c2)C(C)(C)C)c(F)c1 [RG-101523, 3,5-Dimethyl-benzoic acid N-tert-butyl-N′-(4-ethyl-2-fluoro-benzoyl)-hydrazide]
[1]
  EC50: 2370 nM
  13B3 assay Rel Max FI: 0.772
  fold induction at 3.3 µM: 831
  fold induction at 33 µM: 718
[2]
  EC50: 242 nM
  fold induction at 3.3 µM: 704
  fold induction at 33 µM: 596

## Cc1c(C(=O)NN(C(=O)c2cc(F)c(F)c(F)c2F)C(C)(C)C)ccc2c1CCCO2 [RG-115518]
[1]; average of two wells
  Fold Induction, 13B3 Assay, 3.3 uM: 1644
  Fold Induction, 13B3 Assay, 33 uM: 926
[1]
  13B3 assay Rel Max FI: 0.648
[1]; [3]
  EC50: 1250 nM
[2]; average of two wells
  Fold Induction, Z3 Assay, 3.3 uM: 232
  Fold Induction, Z3 Assay, 33 uM: 803
[2]; HEK-293 Z3 cells
  Z3 assay Rel Max FI: 0.834
[2]; [4]
  EC50: 257 nM

## COc1ccc(OC)c(C(=O)N(NC(=O)c2cccc(C)c2C)C(C)(C)C)c1 [RG-100763]
[1]; average of two wells
  Fold Induction, 13B3 Assay, 33 uM: 2442
[2]; average of two wells
  Fold Induction, Z3 Assay, 33 uM: 151
[2]; [4]
  EC50: 2140 nM

## CCC(N(NC(=O)c1cccc(C)c1C)C(=O)c1cc(C)cc(C)c1)C(C)(C)C (stereo not shown) [RG-103309, 3,5-dimethyl-benzoic acid N′-(2,3-dimethyl-benzoyl)-N-(1-ethyl-2,2-dimethyl-propyl)-hydrazide]
[1]
  EC50: 146 nM
  13B3 assay Rel Max FI: 1.486
  fold induction at 3.3 µM: 924
  fold induction at 33 µM: 95
[2]
  EC50: 78 nM
  fold induction at 3.3 µM: 1160
  fold induction at 33 µM: 591
[2]; HEK-293 Z3 cells
  Z3 assay Rel Max FI: 0.950

## COc1cccc(C(=O)NN(C(=O)c2cc(C)cc(C)c2)C(C)(C)C)c1C [RG-102398]
[1]
  EC50: 627 nM
  13B3 assay Rel Max FI: 0.838
  fold induction at 3.3 µM: 8120
  fold induction at 33 µM: 795
[2]
  EC50: 95 nM
  fold induction at 3.3 µM: 535
  fold induction at 33 µM: 1970
[2]; HEK-293 Z3 cells
  Z3 assay Rel Max FI: 1.027

## CCc1c(OC)cccc1C(=O)NN(C(=O)c1cc(C)cc(C=NNC(=O)C(N)=O)c1)C(C)(C)C [RG-115613, oxamic hydrazone of N-(3-formyl-5-methyl-benzoyl)-N-tert-butyl-N′-(2-ethyl-3-methoxy-benzoyl) hydrazide]
[1]; average of two wells
  Fold Induction, 13B3 Assay, 3.3 uM: 180
  Fold Induction, 13B3 Assay, 33 uM: 1726
[1]
  13B3 assay Rel Max FI: 0.734
[1]; [3]
  EC50: 5940 nM
[2]; average of two wells
  Fold Induction, Z3 Assay, 3.3 uM: 991
  Fold Induction, Z3 Assay, 33 uM: 1469
[2]; HEK-293 Z3 cells
  Z3 assay Rel Max FI: 0.964
[2]; [4]
  EC50: 589 nM

## CCc1c(OC)cccc1C(=O)NN(C(=O)c1cc(C)cc(COC(C)=O)c1)C(C)(C)C [RG-115223]
[1]; average of two wells
  Fold Induction, 13B3 Assay, 3.3 uM: 8
  Fold Induction, 13B3 Assay, 33 uM: 3437
[1]
  13B3 assay Rel Max FI: 1.346
[1]; [3]
  EC50: > 50000 nM
[2]; average of two wells
  Fold Induction, Z3 Assay, 3.3 uM: 323
  Fold Induction, Z3 Assay, 33 uM: 1299
[2]; HEK-293 Z3 cells
  Z3 assay Rel Max FI: 0.925
[2]; [4]
  EC50: 1900 nM

## Cc1c(C(=O)NN(C(=O)c2ccc(F)cc2)C(C)(C)C)ccc2c1CCCO2 [RG-115118]
[1]; average of two wells
  Fold Induction, 13B3 Assay, 3.3 uM: 979
  Fold Induction, 13B3 Assay, 33 uM: 769
[1]
  13B3 assay Rel Max FI: 0.530
[1]; [3]
  EC50: 689 nM
[2]; average of two wells
  Fold Induction, Z3 Assay, 3.3 uM: 90
  Fold Induction, Z3 Assay, 33 uM: 1160
[2]; HEK-293 Z3 cells
  Z3 assay Rel Max FI: 0.969
[2]; [4]
  EC50: 234 nM

## COc1cccc(C(=O)N(NC(=O)c2ccc3c(c2C)OCCO3)C(C)(C)C)c1 [RG-100360]
[1]; average of two wells
  Fold Induction, 13B3 Assay, 3.3 uM: 1111
  Fold Induction, 13B3 Assay, 33 uM: 745
[1]
  13B3 assay Rel Max FI: 0.825
[1]; [3]
  EC50: 588 nM
[2]; average of two wells
  Fold Induction, Z3 Assay, 3.3 uM: 870
  Fold Induction, Z3 Assay, 33 uM: 891
[2]; HEK-293 Z3 cells
  Z3 assay Rel Max FI: 1.073
[2]; [4]
  EC50: 257 nM

## Cc1c(C(=O)NN(C(=O)c2ccc(F)cc2)C(C)(C)C)ccc2c1OCO2 [RG-100448]
[1]; average of two wells
  Fold Induction, 13B3 Assay, 33 uM: 2
[2]; average of two wells
  Fold Induction, Z3 Assay, 33 uM: 423
[2]; [4]
  EC50: 2820 nM

## COc1ccc(C(=O)N(NC(=O)c2ccc3c(c2C)OCCO3)C(C)(C)C)c(OC)n1 [RG-115517, 2,6-dimethoxy-nicotinic acid N-tert-butyl-N′-(5-methyl-2,3-dihydro-benzo[1,4]dioxine-6-carbonyl)-hydrazide]
[1]
  EC50: 355 nM
  13B3 assay Rel Max FI: 0.675
  fold induction at 3.3 µM: 8400
  fold induction at 33 µM: 12000
[2]
  EC50: 89 nM
  fold induction at 3.3 µM: 408
[2]; HEK-293 Z3 cells
  Z3 assay Rel Max FI: 0.923

## CCc1c(C(=O)NN(C(=O)c2ccc(F)c(F)c2F)C(C)(C)C)ccc2c1OCCO2 [RG-115580]
[1]; average of two wells
  Fold Induction, 13B3 Assay, 33 uM: 298
[2]; average of two wells
  Fold Induction, Z3 Assay, 33 uM: 615
[2]; [4]
  EC50: 182 nM

## COc1cnccc1C(=O)N(NC(=O)c1cccc(O)c1C)C(C)(C)C [RG-115595]
[1]; average of two wells
  Fold Induction, 13B3 Assay, 3.3 uM: 6
  Fold Induction, 13B3 Assay, 33 uM: 1381
[2]; average of two wells
  Fold Induction, Z3 Assay, 3.3 uM: 44
  Fold Induction, Z3 Assay, 33 uM: 1067
[2]; HEK-293 Z3 cells
  Z3 assay Rel Max FI: 0.686
[2]; [4]
  EC50: 5620 nM

## CCc1c(OC)cccc1C(=O)NN(C(=O)c1cc(C)ccc1[N+](=O)[O-])C(C)(C)C [RG-115162]
[1]; average of two wells
  Fold Induction, 13B3 Assay, 3.3 uM: 755
  Fold Induction, 13B3 Assay, 33 uM: 320
[1]
  13B3 assay Rel Max FI: 0.630
[1]; [3]
  EC50: 811 nM
[2]; average of two wells
  Fold Induction, Z3 Assay, 3.3 uM: 334
  Fold Induction, Z3 Assay, 33 uM: 772
[2]; HEK-293 Z3 cells
  Z3 assay Rel Max FI: 0.988
[2]; [4]
  EC50: 69 nM

## CC(O)c1ccc(C(=O)NN(C(=O)c2cc(F)cc(F)c2)C(C)(C)C)cc1 (stereo not shown) [RG-100342]
[1]; average of two wells
  Fold Induction, 13B3 Assay, 33 uM: 611
[2]; average of two wells
  Fold Induction, Z3 Assay, 33 uM: 427
[2]; [4]
  EC50: 10200 nM

## COc1ccc(C)cc1C(=O)N(NC(=O)c1cccc(OC)c1C)C(C)(C)C [RG-100766]
[1]; average of two wells
  Fold Induction, 13B3 Assay, 33 uM: 391
[2]; average of two wells
  Fold Induction, Z3 Assay, 3.3 uM: 921
  Fold Induction, Z3 Assay, 33 uM: 474
[2]; HEK-293 Z3 cells
  Z3 assay Rel Max FI: 1.194
[2]; [4]
  EC50: 174 nM

## COc1cc(C(=O)N(NC(=O)c2ccc3c(c2C)OCCO3)C(C)(C)C#N)cc(OC)c1C [RG-115092, N-(5-methyl-1,4-benzodioxan-6-carbonyl)-N′-(2-cyano-2-propyl)-N′-(3,5-dimethoxy-4-methylbenzoyl)hydrazine]
[1]
  EC50: 184 nM
  13B3 assay Rel Max FI: 1.176
  fold induction at 3.3 µM: 2320
  fold induction at 33 µM: 2410
[2]
  EC50: 37 nM
  fold induction at 3.3 µM: 351
  fold induction at 33 µM: 302
[2]; HEK-293 Z3 cells
  Z3 assay Rel Max FI: 0.917
